Assay results taken from patent US20220281848A1, “PYRAZOLE-SUBSTITUTED PYRROLIDINONES AS HERBICIDES” (FMC Corporation, priority 2019, published 2022).

System: plants
Test: Test D pre-emergence, other plants of Tables D1 and D3
Type: in vivo
Conditions: preemergent, 20 DAA
Summary of the method: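 Seeds treated with herbicide safener; sown in soil; glasshouse, 16 h light, 65% humidity. Sprayed day 1 (pre) or ~day 12 (post). Spray in 0.2% v/v adjuvant. Scored 0–100 damage: 20 DAA pre, 15 d post.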

For CCn1nc([C@H]2CN(C)C(=O)[C@@H]2C(=O)Nc2cccc(F)c2F)c2c(F)cccc21 [Compound 7], the “damage to plant (100=total damage to plant; 0=no damage to plant), ABUTH” value (rate 15) was 0, the “damage to plant (100=total damage to plant; 0=no damage to plant), ABUTH” value (rate 30) was 0 and the “damage to plant (100=total damage to plant; 0=no damage to plant), ABUTH” value (rate 60) was 0. The “damage to plant (100=total damage to plant; 0=no damage to plant), ABUTH” value (rate 130) was 0, the “damage to plant (100=total damage to plant; 0=no damage to plant), ABUTH” value (rate 250) was 0 and the “damage to plant (100=total damage to plant; 0=no damage to plant), ABUTH” value (rate 500) was 10. For the same compound, the “damage to plant (100=total damage to plant; 0=no damage to plant), AMARE” value (rate 15) was 0, the “damage to plant (100=total damage to plant; 0=no damage to plant), AMARE” value (rate 30) was 0 and the “damage to plant (100=total damage to plant; 0=no damage to plant), AMARE” value (rate 60) was 0. The “damage to plant (100=total damage to plant; 0=no damage to plant), AMARE” value (rate 130) was 0, the “damage to plant (100=total damage to plant; 0=no damage to plant), AMARE” value (rate 250) was 0 and the “damage to plant (100=total damage to plant; 0=no damage to plant), AMARE” value (rate 500) was 0. For the same compound, the “damage to plant (100=total damage to plant; 0=no damage to plant), BIDPI” value (rate 15) was 0, the “damage to plant (100=total damage to plant; 0=no damage to plant), BIDPI” value (rate 30) was 0 and the “damage to plant (100=total damage to plant; 0=no damage to plant), BIDPI” value (rate 60) was 0. The “damage to plant (100=total damage to plant; 0=no damage to plant), BIDPI” value (rate 130) was 0, the “damage to plant (100=total damage to plant; 0=no damage to plant), BIDPI” value (rate 250) was 0 and the “damage to plant (100=total damage to plant; 0=no damage to plant), BIDPI” value (rate 500) was 0. The “damage to plant (100=total damage to plant; 0=no damage to plant), BRAPL” value (rate 15) was 0, the “damage to plant (100=total damage to plant; 0=no damage to plant), BRAPL” value (rate 30) was 60 and the “damage to plant (100=total damage to plant; 0=no damage to plant), BRAPL” value (rate 60) was 80. For the same compound, the “damage to plant (100=total damage to plant; 0=no damage to plant), BRAPL” value (rate 130) was 80, the “damage to plant (100=total damage to plant; 0=no damage to plant), BRAPL” value (rate 250) was 90 and the “damage to plant (100=total damage to plant; 0=no damage to plant), BRAPL” value (rate 500) was 100. For the same compound, the “damage to plant (100=total damage to plant; 0=no damage to plant), CYPES” value (rate 15) was 0, the “damage to plant (100=total damage to plant; 0=no damage to plant), CYPES” value (rate 30) was 0 and the “damage to plant (100=total damage to plant; 0=no damage to plant), CYPES” value (rate 60) was 0. For the same compound, the “damage to plant (100=total damage to plant; 0=no damage to plant), CYPES” value (rate 130) was 0, the “damage to plant (100=total damage to plant; 0=no damage to plant), CYPES” value (rate 250) was 0 and the “damage to plant (100=total damage to plant; 0=no damage to plant), CYPES” value (rate 500) was 20. The “damage to plant (100=total damage to plant; 0=no damage to plant), DIGSA” value (rate 15) was 0, the “damage to plant (100=total damage to plant; 0=no damage to plant), DIGSA” value (rate 30) was 80 and the “damage to plant (100=total damage to plant; 0=no damage to plant), DIGSA” value (rate 60) was 90. The “damage to plant (100=total damage to plant; 0=no damage to plant), DIGSA” value (rate 130) was 100, the “damage to plant (100=total damage to plant; 0=no damage to plant), DIGSA” value (rate 250) was 100 and the “damage to plant (100=total damage to plant; 0=no damage to plant), DIGSA” value (rate 500) was 100. The “damage to plant (100=total damage to plant; 0=no damage to plant), ECHCG” value (rate 15) was 0, the “damage to plant (100=total damage to plant; 0=no damage to plant), ECHCG” value (rate 30) was 90 and the “damage to plant (100=total damage to plant; 0=no damage to plant), ECHCG” value (rate 60) was 90. For the same compound, the “damage to plant (100=total damage to plant; 0=no damage to plant), ECHCG” value (rate 130) was 100, the “damage to plant (100=total damage to plant; 0=no damage to plant), ECHCG” value (rate 250) was 100 and the “damage to plant (100=total damage to plant; 0=no damage to plant), ECHCG” value (rate 500) was 100. For the same compound, the “damage to plant (100=total damage to plant; 0=no damage to plant), ELEIN” value (rate 15) was 0, the “damage to plant (100=total damage to plant; 0=no damage to plant), ELEIN” value (rate 30) was 0 and the “damage to plant (100=total damage to plant; 0=no damage to plant), ELEIN” value (rate 60) was 10. For the same compound, the “damage to plant (100=total damage to plant; 0=no damage to plant), ELEIN” value (rate 130) was 60, the “damage to plant (100=total damage to plant; 0=no damage to plant), ELEIN” value (rate 250) was 50 and the “damage to plant (100=total damage to plant; 0=no damage to plant), ELEIN” value (rate 500) was 70. The “damage to plant (100=total damage to plant; 0=no damage to plant), EPHHL” value (rate 15) was 0, the “damage to plant (100=total damage to plant; 0=no damage to plant), EPHHL” value (rate 30) was 0 and the “damage to plant (100=total damage to plant; 0=no damage to plant), EPHHL” value (rate 60) was 0. For the same compound, the “damage to plant (100=total damage to plant; 0=no damage to plant), EPHHL” value (rate 250) was 10, the “damage to plant (100=total damage to plant; 0=no damage to plant), EPHHL” value (rate 500) was 40 and the “damage to plant (100=total damage to plant; 0=no damage to plant), GLXMA” value (rate 15) was 0. The “damage to plant (100=total damage to plant; 0=no damage to plant), GLXMA” value (rate 30) was 0, the “damage to plant (100=total damage to plant; 0=no damage to plant), GLXMA” value (rate 60) was 0 and the “damage to plant (100=total damage to plant; 0=no damage to plant), GLXMA” value (rate 130) was 0. The “damage to plant (100=total damage to plant; 0=no damage to plant), GLXMA” value (rate 250) was 0, the “damage to plant (100=total damage to plant; 0=no damage to plant), GLXMA” value (rate 500) was 0 and the “damage to plant (100=total damage to plant; 0=no damage to plant), IPOHE” value (rate 15) was 0. For the same compound, the “damage to plant (100=total damage to plant; 0=no damage to plant), IPOHE” value (rate 30) was 0, the “damage to plant (100=total damage to plant; 0=no damage to plant), IPOHE” value (rate 60) was 0 and the “damage to plant (100=total damage to plant; 0=no damage to plant), IPOHE” value (rate 130) was 0. For the same compound, the “damage to plant (100=total damage to plant; 0=no damage to plant), IPOHE” value (rate 250) was 0, the “damage to plant (100=total damage to plant; 0=no damage to plant), IPOHE” value (rate 500) was 0 and the “damage to plant (100=total damage to plant; 0=no damage to plant), ORYSA” value (rate 15) was 0. The “damage to plant (100=total damage to plant; 0=no damage to plant), ORYSA” value (rate 30) was 0, the “damage to plant (100=total damage to plant; 0=no damage to plant), ORYSA” value (rate 60) was 0 and the “damage to plant (100=total damage to plant; 0=no damage to plant), ORYSA” value (rate 130) was 0. For the same compound, the “damage to plant (100=total damage to plant; 0=no damage to plant), ORYSA” value (rate 250) was 0, the “damage to plant (100=total damage to plant; 0=no damage to plant), ORYSA” value (rate 500) was 0 and the “damage to plant (100=total damage to plant; 0=no damage to plant), PANMI” value (rate 15) was 0. For the same compound, the “damage to plant (100=total damage to plant; 0=no damage to plant), PANMI” value (rate 30) was 0, the “damage to plant (100=total damage to plant; 0=no damage to plant), PANMI” value (rate 60) was 0 and the “damage to plant (100=total damage to plant; 0=no damage to plant), PANMI” value (rate 130) was 0. The “damage to plant (100=total damage to plant; 0=no damage to plant), PANMI” value (rate 250) was 0, the “damage to plant (100=total damage to plant; 0=no damage to plant), PANMI” value (rate 500) was 20 and the “damage to plant (100=total damage to plant; 0=no damage to plant), SETFA” value (rate 15) was 0. The “damage to plant (100=total damage to plant; 0=no damage to plant), SETFA” value (rate 30) was 80, the “damage to plant (100=total damage to plant; 0=no damage to plant), SETFA” value (rate 60) was 80 and the “damage to plant (100=total damage to plant; 0=no damage to plant), SETFA” value (rate 130) was 90. For the same compound, the “damage to plant (100=total damage to plant; 0=no damage to plant), SETFA” value (rate 250) was 90, the “damage to plant (100=total damage to plant; 0=no damage to plant), SETFA” value (rate 500) was 100 and the “damage to plant (100=total damage to plant; 0=no damage to plant), SIDSP” value (rate 15) was 0. For the same compound, the “damage to plant (100=total damage to plant; 0=no damage to plant), SIDSP” value (rate 30) was 0, the “damage to plant (100=total damage to plant; 0=no damage to plant), SIDSP” value (rate 60) was 0 and the “damage to plant (100=total damage to plant; 0=no damage to plant), SIDSP” value (rate 130) was 0. The “damage to plant (100=total damage to plant; 0=no damage to plant), SIDSP” value (rate 250) was 0, the “damage to plant (100=total damage to plant; 0=no damage to plant), SIDSP” value (rate 500) was 10 and the “damage to plant (100=total damage to plant; 0=no damage to plant), SORVU” value (rate 15) was 0. The “damage to plant (100=total damage to plant; 0=no damage to plant), SORVU” value (rate 30) was 0 and the “damage to plant (100=total damage to plant; 0=no damage to plant), SORVU” value (rate 60) was 0.
